Laboratory results from the NIST ThermoML archive (doi:10.1016/j.jct.2012.05.012).
± gives the expanded uncertainty stated by the source.

What was measured:
[1] = refractive index (Na D-line) (dimensionless); wn = mass fraction of the nth substance listed; settings: 101 kPa, Liquid, Standard Abbe refractometry
[2] = wn = mass fraction of the nth substance listed; settings: for surface tension liquid-gas: Maximal bubble pressure; for mass density: 101 kPa, Liquid, Vibrating tube method

## CCCCn1cc[n+](C)c1.NCC(=O)[O-] [1-butyl-3-methylimidazolium glycinate] + O
[1]; 293.15 K, w2 = 0.0081
  refractive index: 1.4993 ± 0.0005
[1]; 293.15 K, w2 = 0.0102
  refractive index: 1.4968 ± 0.0005
[1]; 293.15 K, w2 = 0.0121
  refractive index: 1.4944 ± 0.0005
[1]; 293.15 K, w2 = 0.014
  refractive index: 1.4918 ± 0.0005
[1]; 293.15 K, w2 = 0.0161
  refractive index: 1.4896 ± 0.0006
[1]; 298.15 K, w2 = 0.0081
  refractive index: 1.4982 ± 0.0005
[1]; 298.15 K, w2 = 0.0102
  refractive index: 1.4954 ± 0.0005
[1]; 298.15 K, w2 = 0.0121
  refractive index: 1.4928 ± 0.0005
[1]; 298.15 K, w2 = 0.014
  refractive index: 1.4907 ± 0.0005
[1]; 298.15 K, w2 = 0.0161
  refractive index: 1.4879 ± 0.0005
[1]; 303.15 K, w2 = 0.0081
  refractive index: 1.497 ± 0.0005
[1]; 303.15 K, w2 = 0.0102
  refractive index: 1.4941 ± 0.0005
[1]; 303.15 K, w2 = 0.0121
  refractive index: 1.4916 ± 0.0005
[1]; 303.15 K, w2 = 0.014
  refractive index: 1.4895 ± 0.0005
[1]; 303.15 K, w2 = 0.0161
  refractive index: 1.4869 ± 0.0005
[1]; 308.15 K, w2 = 0.0081
  refractive index: 1.4955 ± 0.0005
[1]; 308.15 K, w2 = 0.0102
  refractive index: 1.4927 ± 0.0005
[1]; 308.15 K, w2 = 0.0121
  refractive index: 1.4907 ± 0.0005
[1]; 308.15 K, w2 = 0.014
  refractive index: 1.4884 ± 0.0005
[1]; 308.15 K, w2 = 0.0161
  refractive index: 1.4858 ± 0.0005
[1]; 313.15 K, w2 = 0.0081
  refractive index: 1.4943 ± 0.0005
[1]; 313.15 K, w2 = 0.0102
  refractive index: 1.4915 ± 0.0005
[1]; 313.15 K, w2 = 0.0121
  refractive index: 1.4893 ± 0.0005
[1]; 313.15 K, w2 = 0.014
  refractive index: 1.4872 ± 0.0005
[1]; 313.15 K, w2 = 0.0161
  refractive index: 1.4845 ± 0.0005
[1]; 318.15 K, w2 = 0.0081
  refractive index: 1.4931 ± 0.0005
[1]; 318.15 K, w2 = 0.0102
  refractive index: 1.4904 ± 0.0005
[1]; 318.15 K, w2 = 0.0121
  refractive index: 1.4879 ± 0.0005
[1]; 318.15 K, w2 = 0.014
  refractive index: 1.4855 ± 0.0006
[1]; 318.15 K, w2 = 0.0161
  refractive index: 1.4832 ± 0.0005
[1]; 323.15 K, w2 = 0.0081
  refractive index: 1.4917 ± 0.0005
[1]; 323.15 K, w2 = 0.0102
  refractive index: 1.4888 ± 0.0005
[1]; 323.15 K, w2 = 0.0121
  refractive index: 1.4864 ± 0.0005
[1]; 323.15 K, w2 = 0.014
  refractive index: 1.4838 ± 0.0005
[1]; 323.15 K, w2 = 0.0161
  refractive index: 1.4814 ± 0.0006
[2]; 283.15 K, w2 = 0.0081
  surface tension liquid-gas: 45.7 ± 0.4 mN/m
  mass density: 1121.2 ± 8 kg/m3
[2]; 283.15 K, w2 = 0.0091
  surface tension liquid-gas: 45.9 ± 0.4 mN/m
[2]; 283.15 K, w2 = 0.0102
  surface tension liquid-gas: 46.1 ± 0.4 mN/m
[2]; 283.15 K, w2 = 0.0118
  surface tension liquid-gas: 46.3 ± 0.4 mN/m
[2]; 283.15 K, w2 = 0.0131
  surface tension liquid-gas: 46.6 ± 0.4 mN/m
[2]; 283.15 K, w2 = 0.0129
  mass density: 1121.5 ± 8 kg/m3
[2]; 283.15 K, w2 = 0.018
  mass density: 1121.8 ± 8 kg/m3
[2]; 283.15 K, w2 = 0.0234
  mass density: 1122.2 ± 8 kg/m3
[2]; 283.15 K, w2 = 0.0293
  mass density: 1122.6 ± 8 kg/m3
[2]; 288.15 K, w2 = 0.0081
  surface tension liquid-gas: 45.5 ± 0.4 mN/m
  mass density: 1118 ± 8 kg/m3
[2]; 288.15 K, w2 = 0.0091
  surface tension liquid-gas: 45.7 ± 0.4 mN/m
[2]; 288.15 K, w2 = 0.0102
  surface tension liquid-gas: 45.9 ± 0.4 mN/m
[2]; 288.15 K, w2 = 0.0118
  surface tension liquid-gas: 46.2 ± 0.4 mN/m
[2]; 288.15 K, w2 = 0.0131
  surface tension liquid-gas: 46.4 ± 0.4 mN/m
[2]; 288.15 K, w2 = 0.0129
  mass density: 1118.3 ± 8 kg/m3
[2]; 288.15 K, w2 = 0.018
  mass density: 1118.7 ± 8 kg/m3
[2]; 288.15 K, w2 = 0.0234
  mass density: 1119.1 ± 8 kg/m3
[2]; 288.15 K, w2 = 0.0293
  mass density: 1119.5 ± 8 kg/m3
[2]; 293.15 K, w2 = 0.0081
  surface tension liquid-gas: 45.3 ± 0.4 mN/m
  mass density: 1114.8 ± 8 kg/m3
[2]; 293.15 K, w2 = 0.0091
  surface tension liquid-gas: 45.5 ± 0.4 mN/m
[2]; 293.15 K, w2 = 0.0102
  surface tension liquid-gas: 45.7 ± 0.4 mN/m
[2]; 293.15 K, w2 = 0.0118
  surface tension liquid-gas: 46 ± 0.4 mN/m
[2]; 293.15 K, w2 = 0.0131
  surface tension liquid-gas: 46.2 ± 0.4 mN/m
[2]; 293.15 K, w2 = 0.0129
  mass density: 1115.1 ± 8 kg/m3
[2]; 293.15 K, w2 = 0.018
  mass density: 1115.5 ± 8 kg/m3
[2]; 293.15 K, w2 = 0.0234
  mass density: 1115.9 ± 8 kg/m3
[2]; 293.15 K, w2 = 0.0293
  mass density: 1116.3 ± 8 kg/m3
[2]; 298.15 K, w2 = 0.0081
  surface tension liquid-gas: 45 ± 0.4 mN/m
  mass density: 1111.5 ± 8 kg/m3
[2]; 298.15 K, w2 = 0.0091
  surface tension liquid-gas: 45.2 ± 0.4 mN/m
[2]; 298.15 K, w2 = 0.0102
  surface tension liquid-gas: 45.4 ± 0.4 mN/m
[2]; 298.15 K, w2 = 0.0118
  surface tension liquid-gas: 45.7 ± 0.4 mN/m
[2]; 298.15 K, w2 = 0.0131
  surface tension liquid-gas: 45.9 ± 0.4 mN/m
[2]; 298.15 K, w2 = 0.0129
  mass density: 1111.9 ± 8 kg/m3
[2]; 298.15 K, w2 = 0.018
  mass density: 1112.3 ± 8 kg/m3
[2]; 298.15 K, w2 = 0.0234
  mass density: 1112.7 ± 8 kg/m3
[2]; 298.15 K, w2 = 0.0293
  mass density: 1113.1 ± 8 kg/m3
[2]; 303.15 K, w2 = 0.0081
  surface tension liquid-gas: 44.8 ± 0.4 mN/m
  mass density: 1108.4 ± 8 kg/m3
[2]; 303.15 K, w2 = 0.0091
  surface tension liquid-gas: 45 ± 0.4 mN/m
[2]; 303.15 K, w2 = 0.0102
  surface tension liquid-gas: 45.2 ± 0.4 mN/m
[2]; 303.15 K, w2 = 0.0118
  surface tension liquid-gas: 45.5 ± 0.4 mN/m
[2]; 303.15 K, w2 = 0.0131
  surface tension liquid-gas: 45.8 ± 0.4 mN/m
[2]; 303.15 K, w2 = 0.0129
  mass density: 1108.9 ± 8 kg/m3
[2]; 303.15 K, w2 = 0.018
  mass density: 1109.3 ± 8 kg/m3
[2]; 303.15 K, w2 = 0.0234
  mass density: 1109.7 ± 8 kg/m3
[2]; 303.15 K, w2 = 0.0293
  mass density: 1110.2 ± 8 kg/m3
[2]; 308.15 K, w2 = 0.0081
  surface tension liquid-gas: 44.5 ± 0.4 mN/m
  mass density: 1105.4 ± 8 kg/m3
[2]; 308.15 K, w2 = 0.0091
  surface tension liquid-gas: 44.7 ± 0.4 mN/m
[2]; 308.15 K, w2 = 0.0102
  surface tension liquid-gas: 44.9 ± 0.4 mN/m
[2]; 308.15 K, w2 = 0.0118
  surface tension liquid-gas: 45.2 ± 0.4 mN/m
[2]; 308.15 K, w2 = 0.0131
  surface tension liquid-gas: 45.5 ± 0.4 mN/m
[2]; 308.15 K, w2 = 0.0129
  mass density: 1105.7 ± 8 kg/m3
[2]; 308.15 K, w2 = 0.018
  mass density: 1106.2 ± 8 kg/m3
[2]; 308.15 K, w2 = 0.0234
  mass density: 1106.6 ± 8 kg/m3
[2]; 308.15 K, w2 = 0.0293
  mass density: 1107.1 ± 8 kg/m3
[2]; 313.15 K, w2 = 0.0081
  surface tension liquid-gas: 44.2 ± 0.4 mN/m
  mass density: 1102.2 ± 8 kg/m3
[2]; 313.15 K, w2 = 0.0091
  surface tension liquid-gas: 44.4 ± 0.4 mN/m
[2]; 313.15 K, w2 = 0.0102
  surface tension liquid-gas: 44.6 ± 0.4 mN/m
[2]; 313.15 K, w2 = 0.0118
  surface tension liquid-gas: 44.9 ± 0.4 mN/m
[2]; 313.15 K, w2 = 0.0131
  surface tension liquid-gas: 45.2 ± 0.4 mN/m
[2]; 313.15 K, w2 = 0.0129
  mass density: 1102.6 ± 8 kg/m3
[2]; 313.15 K, w2 = 0.018
  mass density: 1103 ± 8 kg/m3
[2]; 313.15 K, w2 = 0.0234
  mass density: 1103.4 ± 8 kg/m3
[2]; 313.15 K, w2 = 0.0293
  mass density: 1103.9 ± 8 kg/m3
[2]; 318.15 K, w2 = 0.0081
  surface tension liquid-gas: 43.7 ± 0.4 mN/m
  mass density: 1099.2 ± 8 kg/m3
[2]; 318.15 K, w2 = 0.0091
  surface tension liquid-gas: 43.9 ± 0.4 mN/m
[2]; 318.15 K, w2 = 0.0102
  surface tension liquid-gas: 44.1 ± 0.4 mN/m
[2]; 318.15 K, w2 = 0.0118
  surface tension liquid-gas: 44.4 ± 0.4 mN/m
[2]; 318.15 K, w2 = 0.0131
  surface tension liquid-gas: 44.6 ± 0.4 mN/m
[2]; 318.15 K, w2 = 0.0129
  mass density: 1099.5 ± 8 kg/m3
[2]; 318.15 K, w2 = 0.018
  mass density: 1099.9 ± 8 kg/m3
[2]; 318.15 K, w2 = 0.0234
  mass density: 1100.3 ± 8 kg/m3
[2]; 318.15 K, w2 = 0.0293
  mass density: 1100.7 ± 8 kg/m3
[2]; 323.15 K, w2 = 0.0081
  surface tension liquid-gas: 43.3 ± 0.4 mN/m
  mass density: 1096.1 ± 8 kg/m3
[2]; 323.15 K, w2 = 0.0091
  surface tension liquid-gas: 43.5 ± 0.4 mN/m
[2]; 323.15 K, w2 = 0.0102
  surface tension liquid-gas: 43.7 ± 0.4 mN/m
[2]; 323.15 K, w2 = 0.0118
  surface tension liquid-gas: 44 ± 0.4 mN/m
[2]; 323.15 K, w2 = 0.0131
  surface tension liquid-gas: 44.2 ± 0.4 mN/m
[2]; 323.15 K, w2 = 0.0129
  mass density: 1096.4 ± 8 kg/m3
[2]; 323.15 K, w2 = 0.018
  mass density: 1096.8 ± 8 kg/m3
[2]; 323.15 K, w2 = 0.0234
  mass density: 1097.2 ± 8 kg/m3
[2]; 323.15 K, w2 = 0.0293
  mass density: 1097.6 ± 8 kg/m3
[2]; 328.15 K, w2 = 0.0081
  surface tension liquid-gas: 42.9 ± 0.4 mN/m
  mass density: 1092.9 ± 8 kg/m3
[2]; 328.15 K, w2 = 0.0091
  surface tension liquid-gas: 43.1 ± 0.4 mN/m
[2]; 328.15 K, w2 = 0.0102
  surface tension liquid-gas: 43.3 ± 0.4 mN/m
[2]; 328.15 K, w2 = 0.0118
  surface tension liquid-gas: 43.5 ± 0.4 mN/m
[2]; 328.15 K, w2 = 0.0131
  surface tension liquid-gas: 43.8 ± 0.4 mN/m
[2]; 328.15 K, w2 = 0.0129
  mass density: 1093.2 ± 8 kg/m3
[2]; 328.15 K, w2 = 0.018
  mass density: 1093.6 ± 8 kg/m3
[2]; 328.15 K, w2 = 0.0234
  mass density: 1094 ± 8 kg/m3
[2]; 328.15 K, w2 = 0.0293
  mass density: 1094.4 ± 8 kg/m3
